From PubChem BioAssay (NCI)
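Method: 48-hour compound exposure of cells in 96-well plates, five concentrations, linear interpolation of endpoints. GI50 marks 50% less growth. Definition used: TGI = concentration required for complete inhibition of growth.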

Key:
Experiment in all cases: NCI tumour cell line growth inhibition, 48 h
HOP-92 NSCLC = tested on: HOP-92 NSCLC
HCT-15 colon = tested on: HCT-15 colon
NCI-H23 lung = tested on: NCI-H23 lung
EKVX NSCLC = tested on: EKVX NSCLC
UACC-257 melanoma = tested on: UACC-257 melanoma
SK-OV-3 ovarian = tested on: SK-OV-3 ovarian
M14 melanoma = tested on: M14 melanoma
HS 578T breast = tested on: HS 578T breast
NCI/ADR-RES ovarian = tested on: NCI/ADR-RES ovarian
MALME-3M melanoma = tested on: MALME-3M melanoma
SN12C renal = tested on: SN12C renal
UO-31 renal = tested on: UO-31 renal
OVCAR-3 ovarian = tested on: OVCAR-3 ovarian
SF-539 CNS = tested on: SF-539 CNS
DU-145 prostate = tested on: DU-145 prostate
SR leukemia = tested on: SR leukemia
MCF7 breast = tested on: MCF7 breast
T-47D breast = tested on: T-47D breast
BT-549 breast = tested on: BT-549 breast
MDA-MB-435 = tested on: MDA-MB-435
SF-295 CNS = tested on: SF-295 CNS
A549 NSCLC = tested on: A549 NSCLC
NCI-H226 lung = tested on: NCI-H226 lung
K-562 leukemia = tested on: K-562 leukemia
CAKI-1 renal = tested on: CAKI-1 renal
SW-620 colon = tested on: SW-620 colon
SNB-75 CNS = tested on: SNB-75 CNS
HL-60(TB) leukemia = tested on: HL-60(TB) leukemia
786-0 renal = tested on: 786-0 renal
OVCAR-4 ovarian = tested on: OVCAR-4 ovarian
MDA-MB-231 breast = tested on: MDA-MB-231 breast
HCC-2998 colon = tested on: HCC-2998 colon
SK-MEL-28 melanoma = tested on: SK-MEL-28 melanoma
A498 renal = tested on: A498 renal
HOP-62 NSCLC = tested on: HOP-62 NSCLC
PC-3 prostate = tested on: PC-3 prostate
HT29 colon = tested on: HT29 colon
ACHN renal = tested on: ACHN renal

Structure (SMILES): CCCCCCCCCCCCCCCC[N+](C)(CCO)Cc1cnc[nH]1 (stereo unspecified)
- GI50 (HOP-92 NSCLC): 922 nM
- TGI (HOP-92 NSCLC): 3820 nM
- GI50 (HCT-15 colon): 3030 nM
- TGI (HCT-15 colon): 26100 nM
- GI50 (NCI-H23 lung): 858 nM
- TGI (NCI-H23 lung): 5300 nM
- GI50 (EKVX NSCLC): 1470 nM
- TGI (EKVX NSCLC): 6630 nM
- GI50 (UACC-257 melanoma): 4080 nM
- TGI (UACC-257 melanoma): 72700 nM
- GI50 (SK-OV-3 ovarian): 1500 nM
- TGI (SK-OV-3 ovarian): 5220 nM
- GI50 (M14 melanoma): 598 nM
- TGI (M14 melanoma): 2220 nM
- GI50 (HS 578T breast): 2850 nM
- TGI (HS 578T breast): 35900 nM
- GI50 (NCI/ADR-RES ovarian): 14700 nM
- TGI (NCI/ADR-RES ovarian): 42400 nM
- GI50 (MALME-3M melanoma): 2010 nM
- TGI (MALME-3M melanoma): 6540 nM
- GI50 (SN12C renal): 1450 nM
- TGI (SN12C renal): 6310 nM
- GI50 (UO-31 renal): 23000 nM
- TGI (UO-31 renal): > 100000 nM
- GI50 (OVCAR-3 ovarian): 995 nM
- TGI (OVCAR-3 ovarian): 3310 nM
- GI50 (SF-539 CNS): 1780 nM
- TGI (SF-539 CNS): 4750 nM
- GI50 (DU-145 prostate): 1230 nM
- TGI (DU-145 prostate): 4200 nM
- GI50 (SR leukemia): 1970 nM
- TGI (SR leukemia): > 100000 nM
- GI50 (MCF7 breast): 1870 nM
- TGI (MCF7 breast): 13900 nM
- GI50 (T-47D breast): 2800 nM
- TGI (T-47D breast): 28100 nM
- GI50 (BT-549 breast): 2520 nM
- TGI (BT-549 breast): 7050 nM
- GI50 (MDA-MB-435): 1440 nM
- TGI (MDA-MB-435): 3810 nM
- GI50 (SF-295 CNS): 1180 nM
- TGI (SF-295 CNS): 4010 nM
- GI50 (A549 NSCLC): 1490 nM
- TGI (A549 NSCLC): 5570 nM
- GI50 (NCI-H226 lung): 1510 nM
- TGI (NCI-H226 lung): 7720 nM
- GI50 (K-562 leukemia): 1570 nM
- TGI (K-562 leukemia): > 100000 nM
- GI50 (CAKI-1 renal): 622 nM
- TGI (CAKI-1 renal): 4470 nM
- GI50 (SW-620 colon): 978 nM
- TGI (SW-620 colon): 13700 nM
- GI50 (SNB-75 CNS): 1110 nM
- TGI (SNB-75 CNS): 5860 nM
- GI50 (HL-60(TB) leukemia): 390 nM
- TGI (HL-60(TB) leukemia): 2000 nM
- GI50 (786-0 renal): 852 nM
- TGI (786-0 renal): 2840 nM
- GI50 (OVCAR-4 ovarian): 978 nM
- TGI (OVCAR-4 ovarian): 56400 nM
- GI50 (MDA-MB-231 breast): 1480 nM
- TGI (MDA-MB-231 breast): 5500 nM
- GI50 (HCC-2998 colon): 1140 nM
- TGI (HCC-2998 colon): 2730 nM
- GI50 (SK-MEL-28 melanoma): 2700 nM
- TGI (SK-MEL-28 melanoma): 9780 nM
- GI50 (A498 renal): 2930 nM
- TGI (A498 renal): 12200 nM
- GI50 (HOP-62 NSCLC): 456 nM
- TGI (HOP-62 NSCLC): 1680 nM
- GI50 (PC-3 prostate): 441 nM
- TGI (PC-3 prostate): 2370 nM
- GI50 (HT29 colon): 382 nM
- TGI (HT29 colon): 12300 nM
- GI50 (ACHN renal): 3130 nM
- TGI (ACHN renal): 19400 nM
